Test results published in patent US5629430A, “Trifluoromethylpyrroloindolecarboxylic acid ester and process for production thereof” (Kyorin Pharmaceutical Co., Ltd., priority 1992, dated 1997).
In brackets after ≈: the same amount, converted by molar mass. Structures can show the parent of a compound that is named as a salt. Where two headings read alike, the source gives them in different places.

Tests used:
[1] = test system: P388 mouse leukemia cells; test: Activity against tumor cell growth (P388, MTT, 72 h); assay type: cell-based; conditions: P388 mouse leukemia cells, 72 h, 37° C., MTT; read-out: IC50 (50% growth inhibition concentration)
Experimental: Using a culture medium RPMI1640 supplemented with 10% inactivated bovine fetal serum, 2 mM glutamine, 100 μ/ml kanamycin sulfate, and 5 μM 2-hydroxyethyldisulfide (This culture medium is hereinafter referred to simply as "culture medium"), P388 mouse leukemia cells were diluted to a concentration of 1.5×10^5 cells/ml in the culture medium, and were placed in each well of 96-well multiplate in 60 μl portions. Separately, the test compound was dissolved in dimethylsulfoxide and was adequately diluted with the culture medium. The diluted solution containing test compound was added to the wells of the above plate respectively in 60 μl portions. Then the cells were incubated in a CO2 -incubator (5% CO2, 37° C.) for 72 hours.
The surviving cell numbers were measured according to the Mosmann's method (J. Immunol. Meth., 65 55-63, 1983) as follows. A 2.5 mg/ml solution of MTT (3-[4,5-dimethylthiazol-2-yl]-2,5-diphenyltetrazolium bromide) in Dulbecco's phosphate buffer solution (PBS) was prepared and added to each of the wells by 20 μl. The cells were further incubated for 3 hours. A 150 μl portion of 0.04N hydrochloric acid-isopropanol solution was added to each of the wells, and MTT-formazane formed was allowed to dissolve by pipetting. The absorbance of the solutions was measured at 540 nm taking the no-cell-containing [solution as the background. The 50% growth inhibition concentration (ICs50) was calculated from ratio of the absorbances of the treated samples to the absorbance of the no-medicine-treated sample, and from the concentration of the test compound.

Sarcoma-180 cells = test: Antineoplastic activity, mice having Sarcoma-180 cells transplanted subcutaneously; assay type: in vivo, mouse (female, CDR strain); conditions: Mus musculus, Sarcoma-180, iv, 144 h, read-out: T/C (average tumor weight, dosed vs. solvent-dosed control); for response vs control in vivo at 0.125 mg/kg: i.v. 0.125 mg/kg single dose
Experimental: The test compound was dissolved in dimethylsulfoxide, and the solution was adequately diluted with 10% Emulfore EL620(produced by Rhone Poulenc Co.) to prepare the test compound solution. The antineoplastic activity was evaluated as below.
To the lateral region of a female mouse (CDR strain, 5 to 6 week age), 3.6×10^6 to 5×10^6 Sarcoma-180 cells were transplanted subcutaneously. Next day, the test medicine solution was injected into the tail vein in a single dose. Eight to twelve mice were employed for the solvent-dosed control group, and five mice were employed for the dosed group. Six days after the dosage, the tumor was cut out, and the weight thereof was measured. The antineoplastic effect was evaluated by the ratio (T/C) of the average tumor weight of the dosed group (T) to the average tumor weight of the solvent-dosed control group (C).

[2] = i.v. 0.25 mg/kg single dose, tumor weighed six days after dosage
[3] = tumor weighed six days after dosage

COC(=O)c1c(C(F)(F)F)[nH]c2c(O)cc3c(c12)C(CCl)CN3C(=O)c1cc2cc(NC(=O)c3cc4cccc(OC)c4o3)ccc2[nH]1 (stereo not shown) [Example 11, Methyl 1-chloromethyl-5-hydroxy-3-[5-[(7-methoxybenzofuran-2-ylcarbonyl)amino]-1H-indol-2-ylcarbonyl]-7-trifluoromethyl-1,2,3,6-tetrahydropyrrolo[3,2-e]indole-8-carboxylate]
IC50 [1]: 0.67 ng/mL (≈ 0.984 nM) | response vs control in vivo at 1 mg/kg (Sarcoma-180 cells; i.v. 1.0 mg/kg single dose, tumor weighed six days after dosage): 6%

COC(=O)c1c(C(F)(F)F)[nH]c2c(O)cc3c(c12)C(CCl)CN3C(=O)c1cc2cc(NC(=O)c3ccc4ccccc4c3)ccc2[nH]1 (stereo not shown) [Example 15, Methyl 1-chloromethyl-5-hydroxy-3-[5-[(naphthalene-3-ylcarbonyl)amino]-1H-indol-2-ylcarbonyl]-7-trifluoromethyl-1,2,3,6-tetrahydropyrrolo[3,2-e]indole-8-carboxylate]
IC50 [1]: 0.83 ng/mL (≈ 1.26 nM) | response vs control in vivo at 0.5 mg/kg (Sarcoma-180 cells; i.v. 0.5 mg/kg single dose, tumor weighed six days after dosage): 11%

COC(=O)c1c(C(F)(F)F)[nH]c2c(O)cc3c(c12)C(CCl)CN3C(=O)c1cc2cc(NC(=O)c3cc4c(cn3)[nH]c3ccccc34)ccc2[nH]1 (stereo not shown) [Example 19, Methyl 1-chloromethyl-5-hydroxy-3-[5-[(9H-pyrido[3,4-b]indol-3-ylcarbonyl)amino]-1H-indol-2ylcarbonyl]-7-trifluoromethyl-1,2,3,6-tetrahydropyrrolo[3,2e]indole-8-carboxylate]
IC50 [1]: 0.11 ng/mL (≈ 0.157 nM) | response vs control in vivo at 0.25 mg/kg (Sarcoma-180 cells; [2]): 22%

COC(=O)c1c(C(F)(F)F)[nH]c2c1C13CC1CN(C(=O)c1cc4cc(NC(=O)c5cc6cc(OC)c(OC)c(OC)c6[nH]5)ccc4[nH]1)C3=CC2=O (stereo not shown) [Example 27, Methyl 6-trifluoromethyl-2-[5-[(5,6,7-trimethoxy-1H indol-2-ylcarbonyl)amino]-1H-indol-2-ylcarbonyl]-1,2,8,8a-tetrahydrocyclopropa[c]pyrrolo[3,2-e]indole-4 (5H)-one-7-carboxylate]
IC50 [1]: 0.17 ng/mL (≈ 0.242 nM) | response vs control in vivo at 0.125 mg/kg (Sarcoma-180 cells; [3]): 19%

COC(=O)c1c(C(F)(F)F)[nH]c2c1C13CC1CN(C(=O)c1cc4cc(NC(=O)c5cc6c(OC)c(OC)c(OC)cc6[nH]5)ccc4[nH]1)C3=CC2=O (stereo not shown) [Example 28, Methyl 6-trifluoromethyl-2-[5-[(4,5,6-trimethoxy-1-H-indol-2-ylcarbonyl)amino]-1H-indol-2-ylcarbonyl]-1,2,8,8a-tetrahydrocyclopropa[c]pyrrolo[3,2-e]indole-4(5H)-one-7-carboxylate]
IC50 [1]: 0.11 ng/mL (≈ 0.156 nM) | response vs control in vivo at 0.25 mg/kg (Sarcoma-180 cells; [2]): 28%

COC(=O)c1c(C(F)(F)F)[nH]c2c1C13CC1CN(C(=O)c1cc4cc(NC(=O)c5cc6ccccc6cn5)ccc4[nH]1)C3=CC2=O (stereo not shown) [Example 31, Methyl 3-[5-[(isoquinolin-3-ylcarbonyl)amino]-1H-indol-2-ylcarbonyl]-6-trifluoromethyl-1,2,8,8a-tetrahydrocyclopropa[c]pyrrolo[3,2-e]indol-4 (5H)-one-7-carboxylate]
IC50 [1]: 0.1 ng/mL (≈ 0.16 nM) | response vs control in vivo at 0.125 mg/kg (Sarcoma-180 cells; [3]): 24%

COC(=O)c1c(C(F)(F)F)[nH]c2c1C13CC1CN(C(=O)c1cc4cc(NC(=O)c5cc6c(OC)c(OC)c(OC)cc6cn5)ccc4[nH]1)C3=CC2=O (stereo not shown) [Example 32, Methyl 6-trifluoromethyl-2-[5-[(5,6,7-trimethoxyisoquinolin-3-ylcarbonyl)amino]-1H-indol-2-ylcarbonyl]-1,2,8,8a-tetrahydrocyclopropa[c]pyrrolo[3,2e]indol-4 (5H)-one-7-carboxylate]
IC50 [1]: 0.09 ng/mL (≈ 0.126 nM) | response vs control in vivo at 0.125 mg/kg (Sarcoma-180 cells; [3]): 23%

COC(=O)c1c(C(F)(F)F)[nH]c2c(O)cc3c(c12)C(CBr)CN3C(=O)c1cc2cc(NC(=O)c3cc4ccccc4o3)ccc2[nH]1 (stereo not shown) [Example 37, Methyl 3-[5-[(benzofuran-2-ylcarbonyl)amino]-1H-indol-2-ylcarbonyl]-1-bromomethyl-5-hydroxy-7-trifluoromethyl-1,2,3,6-tetrahydropyrrolo[3,2-e]indole-8-carboxylate]
IC50 [1]: 0.61 ng/mL (≈ 0.877 nM) | response vs control in vivo at 0.25 mg/kg (Sarcoma-180 cells; [2]): 24%

COC(=O)c1c(C(F)(F)F)[nH]c2c(O)cc3c(c12)C(CBr)CN3C(=O)c1cc2cc(NC(=O)c3cc4ccccc4cn3)ccc2[nH]1 (stereo not shown) [Example 43, Methyl 1-bromomethyl-5-hydroxy-3-[5-[(isoquinolin-3-ylcarbonyl)amino]-1H-indol-2-ylcarbonyl]-7-trifluoromethyl-1,2,3,6-tetrahydropyrrolo[3,2-e]indole-8-carboxylate]
IC50 [1]: 0.1 ng/mL (≈ 0.142 nM) | response vs control in vivo at 0.125 mg/kg (Sarcoma-180 cells; [3]): 25%

COC(=O)c1c(C(F)(F)F)[nH]c2c(OC(=O)N3CCN(C)CC3)cc3c(c12)C(CCl)CN3C(=O)c1cc2cc(NC(=O)c3cc4cc(OC)c(OC)c(OC)c4[nH]3)ccc2[nH]1 (stereo not shown) [Example 51, Methyl 1-chloromethyl-5-(4-methylpiperazin-1-ylcarbonyl)oxy-7-trifluoromethyl-3-[5-[(5,6,7-trimethoxy1H-indol-2-ylcarbonyl)amino]-1H-indol-2-ylcarbonyl)-1,2,3,6tetrahydropyrrolo[3,2-e]indol, e-8-carboxylate]
response vs control in vivo at 4 mg/kg (Sarcoma-180 cells): 25%

COC(=O)c1c(C(F)(F)F)[nH]c2c(OC(=O)N3CCN(C)CC3)cc3c(c12)C(CCl)CN3C(=O)c1cc2cc(NC(=O)c3cc4ccccc4cn3)ccc2[nH]1 (stereo not shown) [Example 52, Methyl 1-chloromethyl-5-(4-methylpiperazin-1-ylcarbonyl)oxy-3-[5-[(isoquinolin-3-ylcarbonyl)amino]-1H-indol-2-ylcarbonyl)-7-trifluoromethyl-1,2,3,6-tetrahydropyrrolo[3,2-e]indole-8-carboxylate]
response vs control in vivo at 1 mg/kg (Sarcoma-180 cells): 12%

COC(=O)c1c(C(F)(F)F)[nH]c2c(OC(=O)N3CCN(C)CC3)cc3c(c12)C(CBr)CN3C(=O)c1cc2cc(NC(=O)c3cc4cc(OC)c(OC)c(OC)c4[nH]3)ccc2[nH]1 (stereo not shown) [Example 53, Methyl 1-bromomethyl-5-(4-methylpiperazin-1-ylcarbonyl)oxy-7-trifluoromethyl-3-[5-[(5,6,7-trimethoxy1H-indol-2-ylcarbonyl)amino]1H-indol-2-ylcarbonyl]-1,2,3,6-tetrahydropyrrolo[3,2-e]indole-8-carboxylate]
response vs control in vivo at 4 mg/kg (Sarcoma-180 cells): 20%

COC(=O)c1c(C(F)(F)F)[nH]c2c(OC(=O)N3CCN(C)CC3)cc3c(c12)C(CBr)CN3C(=O)c1cc2cc(NC(=O)c3cc4ccccc4cn3)ccc2[nH]1 (stereo not shown) [Example 54, Methyl 1-bromomethyl-5-(4-methylpiperazin-1-ylcarbonyl)oxy-3-[5-[(isoquinolin-3-ylcarbonyl)amino]-1H-indol-2-ylcarbonyl]-7-trifluoromethyl-1,2,3,6-tetrahydropyrrolo[3,2-e]indole-8-carboxylate hydrochloride salt]
response vs control in vivo at 0.25 mg/kg (Sarcoma-180 cells): 15%

COC(=O)c1c(C(F)(F)F)[nH]c2c(O)cc3c(c12)[C@H](CCl)CN3C(=O)c1cc2cccc(OC)c2o1 [Example 70, Methyl (1S)-1-chloromethyl-5-hydroxy-3-(7-methoxybenzofuran-2-ylcarbonyl)-7-trifluoromethyl-1,2,3,6-tetrahydropyrrolo[3,2-e]indole-8-carboxylate]
IC50 [1]: 2 ng/mL (≈ 3.83 nM)

COC(=O)c1c(C(F)(F)F)[nH]c2c(O)cc3c(c12)[C@H](CCl)CN3C(=O)/C=C/c1ccc(OC)cc1 [Example 74, Methyl (1S)-1-chloromethyl-5-hydroxy-3-[2-(4-methoxyphenyl)ethylene-1-ylcarbonyl]-7-trifluoromethyl-1,2,3,6-tetrahydropyrrolo[3,2-e]indole-8-carboxylate]
IC50 [1]: 1.3 ng/mL (≈ 2.55 nM)

COC(=O)c1c(C(F)(F)F)[nH]c2c1[C@@]13C[C@@H]1CN(C(=O)c1cc4cc(NC(=O)OC(C)(C)C)ccc4[nH]1)C3=CC2=O [Example 84, Methyl (7bR, 8aS)-2-[5-(t-butoxycarbonyl)amino-1H-indole-2-ylcarbonyl]-6-trifluoromethyl-1,2,8,8a-tetrahydrocyclopropa[c]pyrrolo[3,2-e]indole-4 (5H)-one-7-carboxylate]
IC50 [1]: 1.7 ng/mL (≈ 2.98 nM)
